Like-named read-outs stand apart in the source and are kept apart here.
What was measured:
Sendai virus = assay type: cell-based
RLR signaling [1] = assay type: cell-based
RLR signaling [2] = experiment: Q-PCR analysis of IFN-β expression in Hep3B cells transfected with Poly(I:C); assay type: cell-based; settings: Hep3B control cells; effect markedly impaired upon MCT1 knockdown
MAVS signaling = assay type: cell-based
VSV-GFP = assay type: cell-based, Vesicular stomatitis virus
iBMM cells = assay type: cell-based
RLR signaling [3] = assay type: cell-based; remark: listed apart in the source
MAVS [4] = biological target: T1, MAVS (Homo sapiens, UniProt Q7Z434); experiment: MAVS mitochondria localization in HEK293 cells (immunoblot of mitochondria fraction, immunofluorescence)
Target sequence in this assay (Q7Z434 whole entry): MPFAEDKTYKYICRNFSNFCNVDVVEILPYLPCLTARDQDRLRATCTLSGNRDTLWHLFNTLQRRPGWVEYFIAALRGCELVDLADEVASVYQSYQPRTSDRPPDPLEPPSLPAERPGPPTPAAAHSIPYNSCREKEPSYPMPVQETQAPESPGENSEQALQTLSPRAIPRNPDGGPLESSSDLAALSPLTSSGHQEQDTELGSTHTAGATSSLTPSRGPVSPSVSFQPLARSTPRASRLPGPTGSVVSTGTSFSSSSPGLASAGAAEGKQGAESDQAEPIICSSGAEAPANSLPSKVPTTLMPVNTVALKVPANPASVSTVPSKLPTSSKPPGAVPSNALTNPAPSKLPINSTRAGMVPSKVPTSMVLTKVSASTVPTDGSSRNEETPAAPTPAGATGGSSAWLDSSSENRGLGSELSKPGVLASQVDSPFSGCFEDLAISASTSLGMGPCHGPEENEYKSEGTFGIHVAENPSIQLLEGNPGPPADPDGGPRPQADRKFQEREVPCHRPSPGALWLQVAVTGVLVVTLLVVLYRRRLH

RIG-I/MAVS = biological target: T2, RIG-I/MAVS (Homo sapiens, UniProt Q7Z434); experiment: Immunoprecipitation of activated RIG-I and MAVS in HEK293 cells; assay type: cell-based; settings: basal and Sendai virus-infected conditions
T2 construct: host or cells: HEK293 (per the earlier reading)

RLR signaling [5] = assay type: cell-based, mice
MAVS [6] = biological target: T1, MAVS; experiment: Lactate-MAVS binding (biotin-lactate pulldown, immunoprecipitation, in vitro binding)
Target sequence in this assay (Q7Z434 2-540 limits assumed): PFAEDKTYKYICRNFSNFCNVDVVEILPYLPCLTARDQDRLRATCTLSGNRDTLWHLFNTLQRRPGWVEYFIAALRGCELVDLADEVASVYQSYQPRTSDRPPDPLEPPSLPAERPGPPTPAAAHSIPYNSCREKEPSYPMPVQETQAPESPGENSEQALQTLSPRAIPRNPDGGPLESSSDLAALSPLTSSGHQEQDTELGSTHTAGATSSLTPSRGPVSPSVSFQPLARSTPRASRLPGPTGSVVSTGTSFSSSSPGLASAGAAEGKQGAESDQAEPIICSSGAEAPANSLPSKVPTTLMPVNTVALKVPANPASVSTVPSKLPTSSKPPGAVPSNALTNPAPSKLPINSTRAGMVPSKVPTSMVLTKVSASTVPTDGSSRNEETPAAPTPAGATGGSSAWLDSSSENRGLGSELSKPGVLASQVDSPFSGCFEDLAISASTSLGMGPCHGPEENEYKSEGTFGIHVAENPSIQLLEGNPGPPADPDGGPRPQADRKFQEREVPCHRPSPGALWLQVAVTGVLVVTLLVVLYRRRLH

HEK293 cells [7] = experiment: Lactate level measurement in HEK293 cells; assay type: cell-based; settings: sodium oxamate (20 mM) overnight
HSV = tested on: HSV; design: species or system mice; settings: mouse, in vivo
MAVS-TBK1-IRF3 = experiment: IRF3 and TBK1 phosphorylation and MAVS aggregation in cells upon RLR activation; assay type: cell-based; settings: data not shown
Protocol: In vivo and in vitro MAVS aggregation assays. In vivo MAVS aggregation was performed according to published protocol (Hou et al., 2011). In brief, mitochondria were isolated by using the Mitochondria isolation kit (Thermo 89874), and mitochondria pellet was suspended in 1×sample buffer (0.5×TBE, 10% glycerol, 2% SDS, and 0.0025% bromophenol blue) and subjected to Semi-denaturing detergent agarose gel electrophoresis (SDD-AGE). Samples were loaded onto a vertical 1.5% agarose gel (Bio-Rad). After electrophoresis in the running buffer (1×TBE and 0.1% SDS) for 40 min with a constant voltage of 80-100 V at 4° C., the proteins were transferred to Immobilon membrane (Millipore) for immunoblotting.

VSV = assay type: in vivo; settings: mice; sodium oxamate (750 mg/kg)
HeLa cells = experiment: Immunofluorescence cellular localization of peptides in HeLa cells; assay type: cell-based; settings: HeLa cells pretreated with peptides; MAVS or Tat antibody staining; data not shown
HEK293 cells [8] = experiment: Metabolomics analysis of HEK293 cells after Poly(I:C) transfection; assay type: cell-based
Text: To investigate whether energy metabolism participates in regulating type-I IFN production, an unbiased, a systemic metabolomics approach was employed to examine the global metabolic changes during RLR-induced type-I IFN production. Changes of metabolites in glycolysis or oxidative phosphorylation were observed upon transfection of HEK293 cells with Poly(I:C) and harvesting for metabolomics analysis. […] As the direct pyruvate downstream metabolite, Acetyl-CoA production would be expected to decrease due to the reduction in pyruvate level, leading to the slower consumption of OAA for citrate production and thus maintaining the OAA level.

HK2 = experiment: Immunoblot of HK2 level in the mitochondria fraction of THP1 cells; settings: Poly(I:C) or HTDNA transfection or LPS stimulation
[9] = 2 hours post PolyI:C transfection
[10] = 4 hours post PolyI:C transfection
[11] = 8 hours post PolyI:C transfection

T2 sequence (Q7Z434 whole entry): as the sequence (Q7Z434 whole entry) above

Compound: O=CC[C@@H](O)[C@H](O)[C@H](O)CO [2-DG, 2-deoxy-glucose]
- virus replication (Sendai virus): reduction in virus replication
- IFN-β and IL-6 production driven by RLR stimuli (RLR signaling [1]): markedly enhanced
- IFN-β expression (RLR signaling [2]): promoted IFN-β expression

Compound: N#C/C(=C\c1cn(-c2ccccc2)c2ccccc12)C(=O)O [UK5099]
- MAVS signaling and IFN-β induction (MAVS signaling): decreased
- lactate level (MAVS signaling): elevated

Compound: O=C[C@H](O)[C@@H](O)[C@@H](O)[C@H](O)CO [galactose]
- GFP expression (VSV-GFP): no GFP expression
- viral replication, as determined by GFP fluorescence (VSV-GFP): marked reduction in viral replication
- anaerobic glycolysis-mediated lactate production (iBMM cells): impaired
- IFN-β and IL-6 production upon poly(I:C) or Sev challenge (RLR signaling [3]): markedly enhanced

Compound: CC(O)C(=O)O (centres unmarked) [lactate]
- effect of oxamate on MAVS mitochondria localization (MAVS [4]; lactate add-back with oxamate): compromised this effect
- interaction between activated RIG-I and MAVS (RIG-I/MAVS): markedly reduced
- IFN-β production (RLR signaling [5]): consistently reduced
- interaction with RLR signaling proteins in biotin pulldown (MAVS [6]; biotin-labeled lactate mixed with whole cell extracts (HEK293)): specifically interacted with MAVS
- interaction with MAVS in cells under physiological conditions (MAVS [6]; complexes immunoprecipitated by anti-MAVS antibody from HEK293 cells): interacted with lactate
- binding of MAVS to Biotin-lactate (MAVS [6]; pre-incubation with excessive lactate, data not shown): significantly attenuated

Compound: NC(=O)C(=O)[O-].[Na+] [sodium oxamate]
- virus replication (Sendai virus): suppressing virus replication
- MAVS mitochondria localization (MAVS [4]; oxamate alone): potentiated
- interaction between activated RIG-I and MAVS (RIG-I/MAVS): enhanced
- lactate level (HEK293 cells [7]): reduced
- IFN production (HSV): no difference
- IRF3 and TBK1 phosphorylation and MAVS aggregation upon RLR activation (MAVS-TBK1-IRF3): promoted
- IFN-β production (RLR signaling [1]): enhanced
- lactate production (VSV): reduced
- IFN-β expression (RLR signaling [2]): promoted IFN-β expression

Compound: control peptide: corresponding control construct (SEQ ID NO:43) (YGRKKRRQRRRATGVLYLLVVLVWVAAQGVLTVL)
- entry into cells (HeLa cells): found to enter into cells

Compound: polyI:C
- Relative Quantity, 2/3-Phosphoglyceric Acid (185.0/97.0) (HEK293 cells [8]; [9]): 0.4994
- Relative Quantity, 3HBA (103.0/59.0) (HEK293 cells [8]; [9]): 0.6808
- Relative Quantity, Aconitate (173.0/85.0) (HEK293 cells [8]; [9]): 0.7655
- Relative Quantity, Alpha-Ketoglutaric Acid (145.0/101.0) (HEK293 cells [8]; [9]): 0.94
- Relative Quantity, D-GA3P (168.9/97.0) (HEK293 cells [8]; [9]): 0.5042
- Relative Quantity, DHAP (168.9/78.8) (HEK293 cells [8]; [9]): 0.6334
- Relative Quantity, F16BP/F26BP/G16BP (339.0/97.0) (HEK293 cells [8]; [9]): 0.5666
- Relative Quantity, Fumaric Acid (115.0/71.0) (HEK293 cells [8]; [9]): 0.7279
- Relative Quantity, G1P/G6P/F6P/F1P (259.0/97.0) (HEK293 cells [8]; [9]): 0.712
- Relative Quantity, Glucose (179.0/89.0) (HEK293 cells [8]; [9]): 1.118
- Relative Quantity, Lactate (89.0/43.0) (HEK293 cells [8]; [9]): 0.536
- Relative Quantity, Malate (133.0/115.0) (HEK293 cells [8]; [9]): 0.6979
- Relative Quantity, Maleic Acid (115.0/71.0 (2)) (HEK293 cells [8]; [9]): 0.6194
- Relative Quantity, Malonic Acid (103.0/41.0) (HEK293 cells [8]; [9]): 0.5644
- Relative Quantity, Oxalacetate (131.0/113.0) (HEK293 cells [8]; [9]): 0.977
- Relative Quantity, PEP (166.9/79.0) (HEK293 cells [8]; [9]): 0.3968
- Relative Quantity, Pyruvate (87.0/43.0) (HEK293 cells [8]; [9]): 0.683
- Relative Quantity, Succinate (117.0/73.0) (HEK293 cells [8]; [9]): 0.7616
- Relative Quantity, 2/3-Phosphoglyceric Acid (185.0/97.0) (HEK293 cells [8]; [10]): 0.7985
- Relative Quantity, 3HBA (103.0/59.0) (HEK293 cells [8]; [10]): 0.7735
- Relative Quantity, Aconitate (173.0/85.0) (HEK293 cells [8]; [10]): 0.6576
- Relative Quantity, Alpha-Ketoglutaric Acid (145.0/101.0) (HEK293 cells [8]; [10]): 0.8959
- Relative Quantity, D-GA3P (168.9/97.0) (HEK293 cells [8]; [10]): 0.6278
- Relative Quantity, DHAP (168.9/78.8) (HEK293 cells [8]; [10]): 0.935
- Relative Quantity, F16BP/F26BP/G16BP (339.0/97.0) (HEK293 cells [8]; [10]): 0.9103
- Relative Quantity, Fumaric Acid (115.0/71.0) (HEK293 cells [8]; [10]): 0.7094
- Relative Quantity, G1P/G6P/F6P/F1P (259.0/97.0) (HEK293 cells [8]; [10]): 0.8706
- Relative Quantity, Glucose (179.0/89.0) (HEK293 cells [8]; [10]): 1.093
- Relative Quantity, Lactate (89.0/43.0) (HEK293 cells [8]; [10]): 0.657
- Relative Quantity, Malate (133.0/115.0) (HEK293 cells [8]; [10]): 0.7843
- Relative Quantity, Maleic Acid (115.0/71.0 (2)) (HEK293 cells [8]; [10]): 0.7566
- Relative Quantity, Malonic Acid (103.0/41.0) (HEK293 cells [8]; [10]): 0.6946
- Relative Quantity, Oxalacetate (131.0/113.0) (HEK293 cells [8]; [10]): 1.006
- Relative Quantity, PEP (166.9/79.0) (HEK293 cells [8]; [10]): 0.7706
- Relative Quantity, Pyruvate (87.0/43.0) (HEK293 cells [8]; [10]): 0.7115
- Relative Quantity, Succinate (117.0/73.0) (HEK293 cells [8]; [10]): 0.8793
- Relative Quantity, 2/3-Phosphoglyceric Acid (185.0/97.0) (HEK293 cells [8]; [11]): 1.118
- Relative Quantity, 3HBA (103.0/59.0) (HEK293 cells [8]; [11]): 1.035
- Relative Quantity, Aconitate (173.0/85.0) (HEK293 cells [8]; [11]): 0.7724
- Relative Quantity, Alpha-Ketoglutaric Acid (145.0/101.0) (HEK293 cells [8]; [11]): 0.965
- Relative Quantity, D-GA3P (168.9/97.0) (HEK293 cells [8]; [11]): 0.998
- Relative Quantity, DHAP (168.9/78.8) (HEK293 cells [8]; [11]): 1.101
- Relative Quantity, F16BP/F26BP/G16BP (339.0/97.0) (HEK293 cells [8]; [11]): 1.127
- Relative Quantity, Fumaric Acid (115.0/71.0) (HEK293 cells [8]; [11]): 1.057
- Relative Quantity, G1P/G6P/F6P/F1P (259.0/97.0) (HEK293 cells [8]; [11]): 1.034
- Relative Quantity, Glucose (179.0/89.0) (HEK293 cells [8]; [11]): 0.9641
- Relative Quantity, Lactate (89.0/43.0) (HEK293 cells [8]; [11]): 1.05
- Relative Quantity, Malate (133.0/115.0) (HEK293 cells [8]; [11]): 0.9353
- Relative Quantity, Maleic Acid (115.0/71.0 (2)) (HEK293 cells [8]; [11]): 0.9352
- Relative Quantity, Malonic Acid (103.0/41.0) (HEK293 cells [8]; [11]): 0.9823
- Relative Quantity, Oxalacetate (131.0/113.0) (HEK293 cells [8]; [11]): 1.032
- Relative Quantity, PEP (166.9/79.0) (HEK293 cells [8]; [11]): 1.062
- Relative Quantity, Pyruvate (87.0/43.0) (HEK293 cells [8]; [11]): 1.023
- Relative Quantity, Succinate (117.0/73.0) (HEK293 cells [8]; [11]): 0.8886
- mitochondria HK2 level (HK2): decreased
